Reference: patent US8592449B1, “Radiolabelled phenylimidazole-based ligands” (H. Lundbeck A/S, priority 2010, dated 2013)

Tested on: PDE10A
Conditions: monkey, PET
Description: The monkey is sedated with ketamin (approximately 10 mg/kg), weighed, and maintained on a constant infusion of ketamin 15 mg/kg/h during transport. During transport the monkey is monitored by pulse oximetry and supported by oxygen. One venous catheter is applied for tracer administration and one venous catheter for blood radioactivity and PK sampling. Propofol is administered until the animal is anesthetized enough to intubate. After intubation the animal is maintained on sevoflurane inhalation anesthesia and artificial ventilation.
Blood samples (0.2 mL for radioactivity determination are taken at 0.5, 1, 3, 5, 10, 15, 20, 30, 45, 60 and 90 minutes after injection. The samples are labeled with time, date, sampling time in relation to injection, and project number.
PET scanning and arterial blood sampling is commenced upon start of the administration of the radiolabelled compound.

With Cc1ccc(C)n2nc(CCc3nc(-c4ccccc4)cn3[11CH3])nc12 [[11C]Lu AE92686, 5,8-dimethyl-2-[2-([^11C-1-methyl]-4-phenyl-1H-imidazol-2-yl)-ethyl]-[1,2,4]triazolo[1,5-a]pyridine] the concentration in cerebellum (cerebellum (very low level of PDE10A)) was “low”, the “uptake and retention in striatum” value (striatum versus other brain regions) was “highest uptake and retention” and the brain entry (i.v. bolus) was “readily enters the brain”. For the same compound, the “time of peak regional tissue concentrations in brain” value (i.v. bolus, post injection) was 10 to 15 min.
